Measurements: PubChem BioAssay (NCI)
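GI50 = concentration required for 50% inhibition of growth. TGI: total growth inhibition.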

How the values were obtained:
Assay in all cases: growth of human tumour cells (NCI), 384-well format
UACC-257 melanoma = system: UACC-257 melanoma
PC-3 prostate = system: PC-3 prostate
SN12C renal = system: SN12C renal
NCI-H226 lung = system: NCI-H226 lung
SW-620 colon = system: SW-620 colon
RXF 393 renal = system: RXF 393 renal
A549 NSCLC = system: A549 NSCLC
HOP-62 NSCLC = system: HOP-62 NSCLC
TK-10 renal = system: TK-10 renal
T-47D breast = system: T-47D breast
OVCAR-5 ovarian = system: OVCAR-5 ovarian
KM12 colon = system: KM12 colon
SK-MEL-5 melanoma = system: SK-MEL-5 melanoma
SR leukemia = system: SR leukemia
SNB-19 CNS = system: SNB-19 CNS
786-0 renal = system: 786-0 renal
M14 melanoma = system: M14 melanoma
SF-539 CNS = system: SF-539 CNS
MALME-3M melanoma = system: MALME-3M melanoma
NCI-H322M lung = system: NCI-H322M lung
RPMI-8226 leukemia = system: RPMI-8226 leukemia
UO-31 renal = system: UO-31 renal
MDA-MB-231 breast = system: MDA-MB-231 breast
OVCAR-4 ovarian = system: OVCAR-4 ovarian
HL-60(TB) leukemia = system: HL-60(TB) leukemia
OVCAR-8 ovarian = system: OVCAR-8 ovarian
BT-549 breast = system: BT-549 breast
CAKI-1 renal = system: CAKI-1 renal
SF-268 CNS = system: SF-268 CNS
IGROV1 ovarian = system: IGROV1 ovarian
NCI-H460 NSCLC = system: NCI-H460 NSCLC
NCI-H522 lung = system: NCI-H522 lung
OVCAR-3 ovarian = system: OVCAR-3 ovarian
A498 renal = system: A498 renal
MCF7 breast = system: MCF7 breast
MOLT-4 leukemia = system: MOLT-4 leukemia
HCT-15 colon = system: HCT-15 colon
ACHN renal = system: ACHN renal
HCC-2998 colon = system: HCC-2998 colon
NCI-H23 lung = system: NCI-H23 lung
NCI/ADR-RES ovarian = system: NCI/ADR-RES ovarian
UACC-62 melanoma = system: UACC-62 melanoma
SK-OV-3 ovarian = system: SK-OV-3 ovarian
CCRF-CEM leukemia = system: CCRF-CEM leukemia
HS 578T breast = system: HS 578T breast
SF-295 CNS = system: SF-295 CNS
COLO 205 colon = system: COLO 205 colon
DU-145 prostate = system: DU-145 prostate
SNB-75 CNS = system: SNB-75 CNS
MDA-MB-468 breast = system: MDA-MB-468 breast
MDA-MB-435 melanoma = system: MDA-MB-435 melanoma
EKVX NSCLC = system: EKVX NSCLC
K-562 leukemia = system: K-562 leukemia
LOX IMVI melanoma = system: LOX IMVI melanoma
SK-MEL-28 melanoma = system: SK-MEL-28 melanoma
HT29 colon = system: HT29 colon
HOP-92 NSCLC = system: HOP-92 NSCLC

## CCC(CC)n1cnc2c(-c3cnc(N)cn3)nc(N3CC4CCC(C3)O4)nc21
UACC-257 melanoma
  GI50: 2.37 µM
  TGI: > 100 µM
PC-3 prostate
  GI50: 0.348 µM
  TGI: > 100 µM
SN12C renal
  GI50: 0.433 µM
  TGI: > 100 µM
NCI-H226 lung
  GI50: 0.54 µM
  TGI: 6.52 µM
SW-620 colon
  GI50: 3.46 µM
  TGI: > 100 µM
RXF 393 renal
  GI50: 1.29 µM
  TGI: > 100 µM
A549 NSCLC
  GI50: 0.418 µM
  TGI: > 100 µM
HOP-62 NSCLC
  GI50: 1.01 µM
  TGI: 39.1 µM
TK-10 renal
  GI50: 1.39 µM
  TGI: > 100 µM
T-47D breast
  GI50: 0.0669 µM
  TGI: 0.431 µM
OVCAR-5 ovarian
  GI50: 0.685 µM
  TGI: > 100 µM
KM12 colon
  GI50: 0.508 µM
  TGI: > 100 µM
SK-MEL-5 melanoma
  GI50: 0.288 µM
  TGI: 1.61 µM
SR leukemia
  GI50: 0.189 µM
  TGI: 1.17 µM
SNB-19 CNS
  GI50: 8.09 µM
  TGI: > 100 µM
786-0 renal
  GI50: 2.75 µM
  TGI: > 100 µM
M14 melanoma
  GI50: 0.493 µM
  TGI: > 100 µM
SF-539 CNS
  GI50: 1.63 µM
  TGI: > 100 µM
MALME-3M melanoma
  GI50: 0.0694 µM
  TGI: 0.531 µM
NCI-H322M lung
  GI50: 0.394 µM
  TGI: > 100 µM
RPMI-8226 leukemia
  GI50: 0.029 µM
  TGI: 0.151 µM
UO-31 renal
  GI50: 3.03 µM
  TGI: > 100 µM
MDA-MB-231 breast
  GI50: 0.68 µM
  TGI: > 100 µM
OVCAR-4 ovarian
  GI50: 0.635 µM
  TGI: 3.79 µM
HL-60(TB) leukemia
  GI50: 44.5 µM
  TGI: > 100 µM
OVCAR-8 ovarian
  GI50: 1.75 µM
  TGI: > 100 µM
BT-549 breast
  GI50: 1.06 µM
  TGI: 5.22 µM
CAKI-1 renal
  GI50: 0.775 µM
  TGI: 45.8 µM
SF-268 CNS
  GI50: 2.57 µM
  TGI: > 100 µM
IGROV1 ovarian
  GI50: 0.229 µM
  TGI: 0.894 µM
NCI-H460 NSCLC
  GI50: 0.187 µM
  TGI: > 100 µM
NCI-H522 lung
  GI50: 0.314 µM
  TGI: > 100 µM
OVCAR-3 ovarian
  GI50: 0.901 µM
  TGI: > 100 µM
A498 renal
  GI50: 0.173 µM
  TGI: 1.32 µM
MCF7 breast
  GI50: 0.184 µM
  TGI: 80.3 µM
MOLT-4 leukemia
  GI50: 0.375 µM
  TGI: 10.5 µM
HCT-15 colon
  GI50: 0.566 µM
  TGI: > 100 µM
ACHN renal
  GI50: 0.523 µM
  TGI: > 100 µM
HCC-2998 colon
  GI50: 10.5 µM
  TGI: > 100 µM
NCI-H23 lung
  GI50: 1.27 µM
  TGI: > 100 µM
NCI/ADR-RES ovarian
  GI50: 2.77 µM
  TGI: > 100 µM
UACC-62 melanoma
  GI50: 0.416 µM
  TGI: 4.61 µM
SK-OV-3 ovarian
  GI50: 0.4 µM
  TGI: 5.19 µM
CCRF-CEM leukemia
  GI50: 0.358 µM
  TGI: 14 µM
HS 578T breast
  GI50: 0.205 µM
  TGI: 0.927 µM
SF-295 CNS
  GI50: 0.267 µM
  TGI: 2.28 µM
COLO 205 colon
  GI50: 0.425 µM
  TGI: > 100 µM
DU-145 prostate
  GI50: 2.03 µM
  TGI: > 100 µM
SNB-75 CNS
  GI50: 0.312 µM
  TGI: 7.84 µM
MDA-MB-468 breast
  GI50: 0.375 µM
  TGI: 1.2 µM
MDA-MB-435 melanoma
  GI50: 1.58 µM
  TGI: 39.9 µM
EKVX NSCLC
  GI50: 0.977 µM
  TGI: 9.92 µM
K-562 leukemia
  GI50: 1.68 µM
  TGI: > 100 µM
LOX IMVI melanoma
  GI50: 1.08 µM
  TGI: 8.87 µM
SK-MEL-28 melanoma
  GI50: 0.309 µM
  TGI: 5.99 µM
HT29 colon
  GI50: 2.53 µM
  TGI: > 100 µM
HOP-92 NSCLC
  GI50: 0.298 µM
  TGI: 4.96 µM
